Assay [1] concerns dsDNA (ds-oligonucleotide, oligonucleotides 1 and 2) (DNA, duplex) AAATTAATATGTATTGTATATAAATTATT/AATAATTTATATACAATACATATTAATTT
Description: UV melting (260 nm). The note with it: 0.1 M NaCl, 0.01 M MgCl2.

Assay [2] shares this test system. Description: circular dichroism. The note with it: Na+ (TBS); TBS pH 7.4, 1 mM EDTA, 37 °C; 2.5 µM compound, 2.5 µM duplex. In general terms: Circular dichroism is the unequal absorption of left and right circularly polarised light.

As a reminder, the ΔTm is the shift of the melting midpoint relative to a reference. Turning to `Nc1c2ccccc2nc2ccccc12`, the ΔTm in assay [1] (derived from two Tm (78.00 ± 0.00, control 64.97 ± 0.20), 100 µM) is 13.03 °C.

For the compound `Nc1c(C(=O)NCCCN2CCN(CCCNC(=O)c3cnc4ccccc4c3N)CC2)cnc2ccccc12`, the binding entry in assay [2] is listed as “yes”. In assay [1] (derived from two Tm (70.7 ± 0.71, control 64.97 ± 0.20), text says 7, 15 µM, 0.1% DMSO), the ΔTm amounted to 5.73 °C.

Consider `O=C1Oc2ccccc2C(=O)C1=CNCCCN1CCN(CCCNC=C2C(=O)Oc3ccccc3C2=O)CC1`, for which the ΔTm in assay [1] (derived from two Tm (64.02 ± 0.00, control 64.97 ± 0.20), 15 µM, change called negligible) was -0.95 °C.

As for `CN(CCCNC=C1C(=O)Oc2ccccc2C1=O)CCCNC=C1C(=O)Oc2ccccc2C1=O`, the ΔTm in assay [1] (derived from two Tm (64.07 ± 0.14, control 64.97 ± 0.20), 15 µM, change called negligible) was -0.90 °C.

As to `CN(CCCNC(=O)c1cnc2ccccc2c1N)CCCNC(=O)c1cnc2ccccc2c1N`, the ΔTm in assay [1] (derived from two Tm (64.5 ± 0.71, control 64.97 ± 0.20), 15 µM, change called negligible) was -0.47 °C.
